We go through eight compounds from patent US20230348369A1 (Cytokinetics, Inc., priority 2020, published 2023).

Like-named read-outs stand apart in the source and are kept apart here.

One experiment addresses T1, endogenous NAMPT (Homo sapiens, UniProt P43490).
T1 construct: stimulate the endogenous NAMPT in a native cellular environment; endogenous in cells; host or cells: SH-SY5Y neuroblastoma cells
Put plainly: Cellular NAD+ modulation assay in neuroblastoma SH-SY5Y cells. In kind it is cell-based. As for the experimental part:
The compounds described herein were also assayed for their ability to stimulate the endogenous NAMPT in a native cellular environment in the cellular NAD+ modulation assay, which measures the ability of the compound to modulate cellular NAD levels. Increased levels of NAD are expected by compounds that permeate the cells and activate the catalytic activity of the endogenous NAMPT.
Neuroblastoma SH-SY5Y cells were grown in 1:1 mixture of Eagle's Minimum Essential Medium and F12 Medium, along with 10% fetal bovine serum, in a humidified incubator with an atmosphere of 95% air and 5% CO2 at 37° C. The assays were initiated by plating 20 μL of SH-SY5Y cells in culture medium with 0.1% fetal bovine serum, at a density of 5000 cells per well to a 384-well Corning™ BioCoat™ Poly-D-Lysine Multiwell Plates. The plates were incubated in the 37° C. incubators for a period of 5 hours. Compounds in DMSO were added to the plates in a volume of 120 nL using the Labcyte Echo Liquid Handlers. […] The plates are then incubated for 40 hours. 30 μL of a readout-solution containing 0.2 U/mL Diaphorase enzyme, 40 uM resazurin, 10 uM FMN, 0.8 U/mL Alcohol dehydrogenase, 3% ethanol, 0.4 mg/mL bovine serum albumin, 0.2% Triton X-100 in 100 mM Tris-HCl, 30 mM EDTA, pH 8.4. The plates were read for fluorescence (Excitation/Emission=540 nm/590 nm) using an EnVision plate reader after 60 mins of incubation at ambient temperature.

For the next experiment, the target named is human NAMPT (Homo sapiens, UniProt P43490). Put plainly: Human recombinant enzyme assay (NMN fluorescence biochemical assay, activation of NAMPT). In a few lines:
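Activation of recombinant human NAMPT (6 nM) with 2.5 mM ATP, 20 μM PRPP and 150 μM nicotinamide in 50 mM HEPES pH 7.2, 1 mM DTT, 1 mM CHAPS, 50 mM NaCl, 100 mM MgCl2; 60 min, ambient temperature. NMN formed was derivatized with acetophenone/KOH/formic acid, fluorescence read at 355/460 nm after 40 min.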

Setting [1] is: Table B, SH-SY5Y cells, cellular NAD levels, doxorubicin, 40 hours.
Setting [2] is: Table A, human recombinant NAMPT, NMN formation, 60 min.
Where [3] appears, read: Table A, human recombinant NAMPT, NMN formation, 60 min, read-out: EC50 Human.
[4] abbreviates: Table B, SH-SY5Y cells, cellular NAD levels, doxorubicin, 40 hours, read-out: EC50.

The term EC50 denotes the concentration that produces a half-maximal response.

T1 sequence (P43490 whole entry): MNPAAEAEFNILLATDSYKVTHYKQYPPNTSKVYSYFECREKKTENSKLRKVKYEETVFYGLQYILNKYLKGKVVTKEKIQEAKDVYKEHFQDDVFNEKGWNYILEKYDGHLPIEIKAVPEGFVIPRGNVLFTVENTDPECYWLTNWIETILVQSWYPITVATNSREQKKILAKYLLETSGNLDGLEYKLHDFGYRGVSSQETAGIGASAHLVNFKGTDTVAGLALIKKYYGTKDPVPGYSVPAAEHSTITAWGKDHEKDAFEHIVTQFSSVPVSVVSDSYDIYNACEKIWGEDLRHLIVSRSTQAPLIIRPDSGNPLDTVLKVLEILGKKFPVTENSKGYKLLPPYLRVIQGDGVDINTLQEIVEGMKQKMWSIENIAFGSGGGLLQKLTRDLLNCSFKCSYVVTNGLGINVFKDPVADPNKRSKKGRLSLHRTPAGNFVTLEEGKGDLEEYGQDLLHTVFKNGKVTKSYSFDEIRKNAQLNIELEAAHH
Chain of human NAMPT (P43490 whole entry): as above

Compound `Cc1ccc(C(=O)N2CC3(CC(NC(=O)NCc4ccc(=O)[nH]c4)C3)C2)cc1` [Compound 214, 1-(2-(4-methylbenzoyl)-2-azaspiro[3.3]heptan-6-yl)-3-((6-oxo-1,6-dihydropyridin-3-yl)methyl)urea] returned an AC0.3 at endogenous NAMPT (setting [1]) greater than 20.1 µM. In addition, on human NAMPT (setting [2]), the “AC1.4 Human” value stood at 10.5 µM. Moreover, the EC50 at human NAMPT (setting [3]) was determined as 36.7 µM.
Consider `CC(C)(O)CN1CCN(C(=O)C2CC3(CC(NC(=O)NCc4ccc(Cl)cc4)C3)C2)CC1` (stereo not shown) [Compound 110], for which the EC50 at endogenous NAMPT came out at 0.3 µM; at human NAMPT it was 3.9 µM. Further, at endogenous NAMPT (setting [1]), the AC0.3 stood at 0.5 µM. Besides, on human NAMPT (setting [2]), the “AC1.4 Human” value stood at 0.7 µM.
In the case of `COc1ccc(CNC(=O)NC2CC3(CC(Cc4ccncc4)C3)C2)cc1` (stereo not shown) [Compound 330, 1-(4-methoxybenzyl)-3-(6-(pyridin-4-ylmethyl)spiro[3.3]heptan-2-yl)urea], on endogenous NAMPT (setting [1]), the AC0.3 amounted to 0.5 µM. Besides, the EC50 on endogenous NAMPT (setting [4]) came out at 8.1 µM; at human NAMPT (setting [3]), 3.9 µM. Moreover, on human NAMPT (setting [2]), the “AC1.4 Human” value was found to be 0.1 µM.
On the same counts, the results for `CN(C(=O)CCCCCNC(=O)NCc1cnco1)c1ccccc1F` [Compound 288, N-(2-fluorophenyl)-N-methyl-6-(3-(oxazol-5-ylmethyl)ureido)hexanamide] are 0.3 µM, 0.8 µM, 3.7 µM and 0.3 µM.
In turn, `COc1ccc(CNC(=O)NCCCCCOc2ccccc2)cc1` [Compound 149, 1-(4-methoxybenzyl)-3-(5-phenoxypentyl)urea] gave an AC0.3 at endogenous NAMPT (setting [1]) of 0.6 µM. For the same compound, the EC50 on endogenous NAMPT (setting [4]) was 1.1 µM; on human NAMPT (setting [3]), 4.9 µM. Also, at human NAMPT (setting [2]), the “AC1.4 Human” value was determined as 0.3 µM.
With `CN(C(=O)[C@H]1C[C@@]2(C[C@H](NC(=O)NCc3ccc(Cl)cc3)C2)C1)C1CCOC1` (stereo partly drawn) [Compound 202, (2S,4s,6S)-6-(3-(4-chlorobenzyl)ureido)-N-methyl-N-((R)-tetrahydrofuran-3-yl)spiro[3.3]heptane-2-carboxamide], at endogenous NAMPT (setting [1]), the AC0.3 stood at 0.5 µM. The EC50 on endogenous NAMPT (setting [4]) was determined as 0.6 µM; at human NAMPT (setting [3]), 2.2 µM. For the same compound, the “AC1.4 Human” value on human NAMPT (setting [2]) stood at 0.9 µM.
Take `Cc1ccc(C(=O)N2CC[C@]3(C2)C[C@H](NC(=O)NCc2ccc(Cl)cc2)C3)cc1` [Compound 164, 1-(4-chlorobenzyl)-3-((2s,4r)-6-(4-methylbenzoyl)-6-azaspiro[3.4]octan-2-yl)urea]: the AC0.3 at endogenous NAMPT (setting [1]) was found to be 11.6 µM. Moreover, the EC50 on endogenous NAMPT (setting [4]) worked out at 12.9 µM; at human NAMPT (setting [3]) it was 40.1 µM. For the same compound, the “AC1.4 Human” value at human NAMPT (setting [2]) worked out at 12.6 µM.
For the compound `CN(C(=O)CCCCCNC(=O)NCc1ccc(Cl)cc1)c1ccccc1` [Compound 268, 6-(3-(4-chlorobenzyl)ureido)-N-methyl-N-phenylhexanamide], the AC0.3 at endogenous NAMPT (setting [1]) was 0.1 µM. In addition, the EC50 on endogenous NAMPT (setting [4]) came to 0.1 µM; at human NAMPT (setting [3]), 0.5 µM. In addition, on human NAMPT (setting [2]), the “AC1.4 Human” value was found to be 0.3 µM.
